Data taken from patent US20240115731A1, “METHOD OF DELIVERING MRNA IN VIVO” (PCI Biotech AS, priority 2021, published 2024).

Legend:
[1] = system: BL/6 mice; experiment: Conclusions from Examples: fold increase (PCI/mRNA alone), IVIS and luciferase assay; type: in vivo; details: illumination 30 seconds after mRNA/photosensitiser injection
Procedure: Good correspondence between the IVIS and luciferase assay results was observed. The fold increase (PCI/mRNA alone) with illumination only 30 seconds after mRNA/photosensitiser injection is higher than has been achieved in earlier experiments in which illumination was conducted 60 minutes after injection (3-5 times improvement). The improvement relative to using no photosensitiser is in the order of 30 fold. Shorter contact times were also effective at very low photosensitiser dose allowing for reduced side effects in subjects.

[2] = system: BL/6 mouse skin; experiment: Intradermal naked mRNA delivery, IVIS bio-luminescence imaging of injection sites; type: in vivo, mice; details: Example 5: intradermal, 2 μg mRNA + 0.003 μg TPCS2a, blue light 30 seconds after administration
Procedure: (§1) • 1. 20-24 hours after light (or TPCS2a injection), mice were given an intraperitoneal injection of 3 mg D-Luciferin (200 μl of 15 mg/ml stock). • 2. After approximately 10 minutes the mice were anaesthetized by a subcutaneous injection of Zoletil (15 mg/kg xylasin, 7.5 mg/kg butorphanol, 9 mg/kg zolazepam, and 9 mg tiletamine) • 3. 20 minutes after D-luciferin (Caliper Life Sciences) injection, the mice were placed in the IVIS instrument (IVIS Spectrum, model 124375R from PerkinElmer, Andor camera IS0825R4582; iKon Living Image version: 4.5.2.18424. Binning factor: 8; Excitation filter: Block; Emission filter: Open; f Number: 1) and pictures were taken with automatic exposure of Luminescence. • 4. Bio-luminescence is expressed as “Total Flux” (photon/second)×10^5.
(§2) The materials and methods were as used in Example 1, except that the administration was intradermal and blue light was used (wavelength between 400 and 540 nm with a peak at around 435 nm from the LumiSource illumination device produced by PCI Biotech AS, with a 13 mW/cm^2 fluence rate—a 6 minute illumination delivers 4.7 J/cm^2). Luciferase activity was assessed as set out in Example 1 except that skin homogenates were used.
The materials and methods were as used in Example 2. Animals were injected at two sites (left or right). IVIS was examined as set out in Example 1. […]

[3] = system: thigh muscle of C57BL/6 mice; experiment: Intramuscular naked mRNA delivery, IVIS bio-luminescence imaging of injection sites; type: in vivo
From the text: (§3) Female mice of the strain C57BL/6 (Charles River) were used. Animal identification and conditions of housing, acclimatisation, environment, diet and water was in accordance with the current Standard Operating Procedures at the animal facilities at Oslo University Hospital—The Radium Hospital. Age and weight at start of dosing: 5-6 weeks, 18-20 g. The injection area was shaved before illumination.
(§4) Firefly luciferase mRNA (L-7202—with modified base 5-methoxyuridine (5 moU), and with the TriLink CleanCap™ modification as the capping structure, purchased from TriLink Biotechnologies, San Diego, USA) was used.
(§5) TPCS2a (Amphinex®, PCI Biotech AS, Norway) was used mixed in a volume of 20 μl PBS (e.g. using a 0.000015 μg/μl solution for a 0.0003 μg dose).
(§6) mRNA (in aqueous solution, 20 μl of 0.1 μg/μl from stock solution of 1 μg/μl) in the amounts indicated in the table below were injected into the thigh muscle of each animal, with or without TPCS2a in the amounts indicated.
(§7) […] Animals 7-12 were not illuminated. 20 hours after the injections the animals were analysed by IVIS and assayed for luciferase activity (Luciferase Assay System, Promega, Cat #E1500) in muscle homogenates.
as §1

[4] = system: thigh muscle of C57BL/6 mice; experiment: Intramuscular naked mRNA delivery, luciferase assay in muscle homogenates; type: in vivo
From the text: as §3, §4, §5, §6, §7
(§8) Muscle homogenates were prepared from frozen tissue samples using a Precelly homogenizer and lysis buffer with phosphatase and protease inhibitors (MSD, Cat. No. R60TX-2, R70AA-1). Protein analysis was performed using the DC Protein Assay (Biorad). Luciferase is expressed as relative units (RLU=relative luminescence units) per mass of protein in the samples.

[5] = system: BL/6 mouse skin; experiment: Intradermal naked mRNA delivery, luciferase assay in skin homogenates; type: in vivo, mice
Procedure: as §8, §2
The materials and methods were as used in Example 2. Luciferase activity was assessed as set out in Example 1 except that skin homogenates were used.
The materials and methods were as used in Example 3 but with even lower doses. Luciferase activity was assessed as set out in Example 1 except that skin homogenates were used.

[6] = Example 6: intramuscular, 2 μg mRNA + 0.0003 or 0.0001 μg TPCS2a, blue light 30 seconds after injection

Substance: tetraphenyl chlorin disulfonate [TPCS2a]
- improvement of fold increase (PCI/mRNA alone) with illumination 30 seconds after injection over earlier experiments with illumination 60 minutes after injection [1]: 3-5 times
- improvement relative to using no photosensitiser [1]: ~30 fold
- increase of bio-luminescence of PCI sites vs control sites receiving mRNA only [2]: around 7.2 fold
- bio-luminescence of PCI sites vs control sites receiving mRNA only ([3]; Example 1: intramuscular, 2 μg mRNA + 0.0003 μg TPCS2a, red light 1 J/cm^2 5 minutes after injection): significantly stronger luminescence
- bio-luminescence of PCI sites vs control sites receiving mRNA only [3, 6]: significantly stronger luminescence
- bio-luminescence, effect of PCI at very low dose ([3]; Example 10: intramuscular, 2 μg mRNA + 0.000003 μg TPCS2a, red light 1 J/cm^2, 5 minute interval): An effect was observed
- increase of bio-luminescence by PCI ([3]; Example 10: intramuscular, 2 μg mRNA + 0.0001 μg TPCS2a, red light 1 J/cm^2, 5 minute interval): 5 fold
- increase of bio-luminescence by PCI ([3]; Example 10: intramuscular, 2 μg mRNA + 0.0003 μg TPCS2a, red light 1 J/cm^2, 5 minute interval): 7 fold
- mean fold of increase for the PCI treated sites vs mRNA only sites (luciferase assay) ([4]; Example 1: intramuscular, 2 μg mRNA + 0.0003 μg TPCS2a, red light 652 nm 1 J/cm^2 5 minutes after injection, 20 hours): 4.9 times
- effectiveness of low photosensitiser dose (luminescence and luciferase activity) ([4]; Example 6: intramuscular, 2 μg mRNA + 0.0001 μg TPCS2a, blue light 30 seconds after injection): highly effective
- luciferase activity of PCI sites vs control sites receiving mRNA only [4, 6]: significantly stronger
- luciferase activity in muscle, effectiveness at lower dose ([4]; Example 7: intramuscular, 2 μg mRNA + 0.0003 μg TPCS2a, blue light 30 seconds after injection): effective
- luciferase activity in muscle, effectiveness by photosensitiser dose ([4]; Example 8: intramuscular, 2 μg mRNA + 0.0003 μg TPCS2a (vs 0.003 and 0.1 μg), blue light 10 minutes after injection): more effective than the higher doses
- increase by PCI (luciferase assay) ([4]; Example 9: intramuscular, 2 μg mRNA + 0.0001 μg TPCS2a, red light 0.3 to 3 J/cm^2, 5 minute interval): 8-9 fold
- effect of PCI (luciferase assay), 10 minute interval ([4]; Example 9: intramuscular, 2 μg mRNA + 0.0001 μg TPCS2a, red light 0.3 to 3 J/cm^2, 10 minute interval): effective but not at the same levels as the 5 minute interval
- enhancement of mRNA delivery (luciferase assay), longer contact times ([5]; Example 2: intradermal, 2 μg mRNA + 0.003 μg TPCS2a, blue light, 30 or 60 min contact time): much less effective
- enhancement of mRNA delivery (luciferase assay) vs mRNA alone ([5]; Example 2: intradermal, 2 μg mRNA + 0.003 μg TPCS2a, blue light, 10 minute contact time): about 20 times
- luciferase activity in skin, effectiveness by photosensitiser dose ([5]; Example 3: intradermal, 2 μg mRNA + 0.003 μg TPCS2a (vs 0.01 and 0.05 μg), blue light 30 seconds after injection): more effective than higher doses
- luciferase activity in skin, effectiveness at lower dose ([5]; Example 4: intradermal, 2 μg mRNA + 0.0003 μg TPCS2a, blue light 30 seconds after injection): effective
